Laboratory results from ChEMBL document CHEMBL1212936, “Discovery of 2-[1-(4-chlorophenyl)cyclopropyl]-3-hydroxy-8-(trifluoromethyl)quinoline-4-carboxylic acid (PSI-421), a P-selectin inhibitor with improved pharmacokinetic properties and oral efficacy in models of vascular injury” (J Med Chem, 2010).
In brackets after ≈: the same amount, converted by molar mass.

What was measured:
[1] = Aqueous solubility of the compound at pH 6.6; assay type: physicochemical; details: aqueous solution
[2] = Clearance in Sprague-Dawley rat at 3 mg/kg, iv and 10 mg/kg, po; assay type: ADME, organism-based; details: in vivo
Rattus norvegicus [3] = assay: Dose normalized AUC in Sprague-Dawley rat measured per mg of plasma at 3 mg/kg, iv and 10 mg/kg, po; assay type: ADME, organism-based; details: in vivo
Mus musculus = assay: Reduction of leukocytes rolling flux in acute intravital microscopy model of C57B6 mouse cremasteric postcapillary venules at 50 mg/kg, po after 35 mins relative to control; assay type: functional; parameters: scale not given: the % may be the effect or the level left
[4] = Physiological stability of the compound at pH 1 assessed as compound remaining after 8 hrs in presence of 20% acetonitrile; assay type: physicochemical; details: read-out: Stability
[5] = Physiological stability of the compound at pH 1 assessed as compound remaining after 12 hrs in presence of 20% acetonitrile; assay type: physicochemical; details: read-out: Stability
[6] = Physiological stability of the compound at pH 1 assessed as compound remaining after 16 hrs in presence of 20% acetonitrile; assay type: physicochemical; details: read-out: Stability
[7] = Physiological stability of the compound at pH 1 assessed as compound remaining after 24 hrs in presence of 20% acetonitrile; assay type: physicochemical; details: read-out: Stability
[8] = Physiological stability of the compound at pH 4.5 assessed as compound remaining after 12 hrs in presence of 20% acetonitrile; assay type: physicochemical; details: read-out: Stability
[9] = Physiological stability of the compound at pH 4.5 assessed as compound remaining after 16 hrs in presence of 20% acetonitrile; assay type: physicochemical; details: read-out: Stability
[10] = Physiological stability of the compound at pH 4.5 assessed as compound remaining after 20 hrs in presence of 20% acetonitrile; assay type: physicochemical; details: read-out: Stability
[11] = Physiological stability of the compound at pH 6.6 assessed as compound remaining after 20 hrs in presence of 20% acetonitrile; assay type: physicochemical; details: read-out: Stability
[12] = Physiological stability of the compound at pH 7.4 assessed as compound remaining after 12 hrs in presence of 20% acetonitrile; assay type: physicochemical; details: read-out: Stability
[13] = Physiological stability of the compound at pH 7.4 assessed as compound remaining after 16 hrs in presence of 20% acetonitrile; assay type: physicochemical; details: read-out: Stability
[14] = Physiological stability of the compound at pH 9 assessed as compound remaining after 4 hrs in presence of 20% acetonitrile; assay type: physicochemical; details: read-out: Stability
[15] = Physiological stability of the compound at pH 9 assessed as compound remaining after 8 hrs in presence of 20% acetonitrile; assay type: physicochemical; details: read-out: Stability
[16] = Physiological stability of the compound at pH 9 assessed as compound remaining after 16 hrs in presence of 20% acetonitrile; assay type: physicochemical; details: read-out: Stability
[17] = Physiological stability of the compound at pH 9 assessed as compound remaining after 20 hrs in presence of 20% acetonitrile; assay type: physicochemical; details: read-out: Stability
[18] = Physiological stability of the compound in simulated intestinal fluid assessed as compound remaining after 8 hrs in presence of 20% acetonitrile; assay type: physicochemical; details: read-out: Stability
[19] = Physiological stability of the compound in simulated intestinal fluid assessed as compound remaining after 20 hrs in presence of 20% acetonitrile; assay type: physicochemical; details: read-out: Stability
[20] = Physiological stability of the compound in simulated intestinal fluid assessed as compound remaining after 24 hrs in presence of 20% acetonitrile; assay type: physicochemical; details: read-out: Stability
[21] = Physiological stability of the compound in simulated intestinal bile salts-lecithin mixture fluid assessed as compound remaining after 8 hrs in presence of 20% acetonitrile; assay type: physicochemical; details: read-out: Stability
[22] = Physiological stability of the compound in simulated intestinal bile salts-lecithin mixture fluid assessed as compound remaining after 20 hrs in presence of 20% acetonitrile; assay type: physicochemical; details: read-out: Stability
[23] = Physiological stability of the compound in simulated intestinal bile salts-lecithin mixture fluid assessed as compound remaining after 24 hrs in presence of 20% acetonitrile; assay type: physicochemical; details: read-out: Stability
[24] = Permeability from apical to basolateral side in human Caco-2 cells; assay type: ADME, cell-based
[25] = Permeability from basolateral to apical side in human Caco-2 cells; assay type: ADME, cell-based
[26] = Half life in Sprague-Dawley rat liver microsomes; assay type: ADME, Microsome
[27] = Half life in Beagle dog liver microsomes; assay type: ADME, Canis lupus familiaris, Microsome
[28] = Oral bioavailability in C57B6 mouse at 10 mg/kg; assay type: ADME, organism-based; details: in vivo
[29] = Clearance in C57B6 mouse at 2 mg/kg, iv and 10 mg/kg, po; assay type: ADME, organism-based; details: in vivo
Canis familiaris = assay: Dose normalized AUC in Beagle dog measured per mg of plasma at 2 mg/kg, iv and 10 mg/kg, po; assay type: ADME, organism-based, Canis lupus familiaris; details: in vivo
Rattus norvegicus [30] = assay: Inhibition of leukocytes rolling flux in acute intravital microscopy model of Sprague-Dawley rat cremasteric postcapillary venules at 3 mg/kg, po after 35 mins relative to control; assay type: functional
Rattus norvegicus [31] = assay: Inhibition of leukocytes rolling flux in acute intravital microscopy model of Sprague-Dawley rat cremasteric postcapillary venules at 7.5 mg/kg, po after 35 mins relative to control; assay type: functional
Rattus norvegicus [32] = assay: Inhibition of Sprague-Dawley rat neointimal hyperplasia carotid balloon injury model at 30 mg/kg, po once daily for 13 days; assay type: functional; details: 312 h
Papio anubis = assay: Toxicity in Baboon deep vein thrombosis model assessed as induction of coagulation at 1 mg/kg, po; assay type: organism-based; parameters: dose 1 mg/kg, route oral; details: in vivo

solubility [1]: 920 µg/mL (≈ 2260 µM)
clearance [2]: 0.7 mL/min/kg
AUC (Rattus norvegicus [3]): 21000 ng·h/mL
remaining at 8 h [4]: 102%
remaining at 12 h [5]: 102%
remaining at 16 h [6]: 102%
remaining at 24 h [7]: 101%
remaining at 12 h [8]: 99.2%
remaining at 16 h [9]: 101%
remaining at 20 h [10]: 100%
remaining at 20 h [11]: 102%
remaining at 12 h [12]: 102%
remaining at 16 h [13]: 102%
remaining at 4 h [14]: 98.5%
remaining at 8 h [15]: 98%
remaining at 16 h [16]: 98.7%
remaining at 20 h [17]: 101%
remaining at 8 h [18]: 104%
remaining at 20 h [19]: 99.4%
remaining at 24 h [20]: 95%
remaining at 8 h [21]: 101%
remaining at 20 h [22]: 103%
remaining at 24 h [23]: 103%
Papp A→B [24]: 5.1 ×10⁻⁶ cm/s
Papp B→A [25]: 9.8 ×10⁻⁶ cm/s
half-life [26]: > 1 h
half-life [27]: > 1 h
bioavailability [28]: 67%
clearance [29]: 7 mL/min/kg
AUC (Canis familiaris): 28862 ng·h/mL
Compound: O=C(O)c1c(O)c(C2(c3ccc(Cl)cc3)CC2)nc2c(C(F)(F)F)cccc12
Activity (Mus musculus): 69%
inhibition in vivo at 3 mg/kg (Rattus norvegicus [30]): 12%
inhibition in vivo at 7.5 mg/kg (Rattus norvegicus [31]): 47%
inhibition in vivo at 30 mg/kg (Rattus norvegicus [32]): 31%
Activity (Papio anubis): Non-toxic
